Experimental data published in patent publication US20220364184A1, “COMPOSITIONS AND METHODS FOR TREATMENT OF A POOR PROGNOSIS SUBTYPE OF COLORECTAL CANCER” (DANA-FARBER CANCER INSTITUTE, INC., priority 2019, published 2022).

Key:
Format in all cases: cell-based, human
BCL9 [1] = assay: Immunofluorescence / FISH of BCL9 localization; conditions: RKO cells
Procedure: At various times after the scratch was made, cells were fixed with 4% paraformaldehyde for 15 minutes at room temperature. Immunofluorescence was subsequently used to identify the location of BCL9 (see immunofluorescence method section for more detail).
Cells were cultured on coming Glass Coverslips (354085, BioCoat) contained within the wells of a 24-well plate for 24 hrs, and then fixed using 4% paraformaldehyde. Cells were washed three times with PBS, permeabilized with 0.5% Triton X-100 (Tris-HCl pH=7.6, 150 mM NaCl, 0.5% Triton X-100 (v/v), washing buffer) for 15 minutes at room temperature, and blocked with 5% BSA for 1 hour at room temperature. The cells were incubated overnight at 4 degrees with the following antibodies; anti-BCL9 (ab37305, Abcam®), NONO (TA504777, Origene®), ILF2 (PA5-18718, ThermoFisher®) or β-catenin (610154, BD Transduction Laboratories). The following day, cells were washed 3 times with PBS and incubated with fluorescently tagged anti-mouse (A11029, ThermoFisher®), rabbit (A11035, ThermoFisher®) or goat (A21447, ThermoFisher®) secondary antibodies for 1 hour at room temperature. Cells were washed 3 times with PBS and stained with DAPI (D9542, Millipore-Sigma®) for two mins. Cells were subsequently washed three times with PBS to remove any residual DAPI stain, and then imaged with an SD confocal microscope. The colocalization threshold is calculated by ImageJ2. Dotted staining area of BCL9 was calculated by the following step: confocal images were processed by High Frequency Signaling Removal to filter out the rapidly changing signal. This process removes the noise and non-dotted staining of BCL9. Then, the top 2% signaling areas were selected. High Frequency Signaling Removal and area size was calculated by ImageJ2. NEAT1 and fluorescence probe was purchased from Biosearch Technology (NEAT1, SMF-2036-1). IF combined FISH of BCL9/NEAT1 was performed as recommended by the supplier.

[2] = system: RGS4, CACNA2D1, ADRB1 mRNA; assay: mRNA expression by RNA-seq / qRT-PCR; conditions: FIG. 3J
Procedure: RNA was extracted from wild type and BCL9 knockout RKO cells with or without Poly I:C treatment (1 μg/ml) and subsequently purified using the TURBO DNA-free™ Kit (AM1907, invitrogen) to remove any residual DNA. An RNA library was prepared using the ribosome RNA removing method and sequenced with a 150 bp paired-end protocol in the Center for Cancer Computational Biology at the Dana Farber Cancer Institute (PRJNA554110). After quality control (QC) analysis was performed using fastQC, the first 10 bases were trimmed for each read. STAR software was used to map the readings to the human genome (hg19) and duplicates were removed using Picard. HTSeq was used to evaluate the gene expression levels by the count number for each gene and were subsequently annotated using the Ensemble database. Gene differential analysis was then applied to the expression profiling table using R package edgeR. For further analysis, the difference in exon usage between different conditions was calculated and R package DEXSeq was used to find differences between them.

DLD-1 cells = assay: IF and Co-IP of BCL9 with paraspeckle proteins in DLD-1 cells
Procedure: (§1) To extract nuclear protein, cells were incubated with cytoplasmic lysis buffer (50 mM Tris-HCl pH=8.0, 20 mM NaCl, 2 mM EDTA, 0.5% Tween-20 containing protease/phosphatase Inhibitor, #5872, Cell Signaling®) on ice for 10 mins, centrifuged at 6000×g, and the precipitate collected. This step was repeated 3 times to remove at much cytoplasmic protein as possible. Subsequently, nuclear lysis buffer (50 mM Tris-HCl pH=7.4, 150 mM NaCl, 2 mM EDTA, 1% Triton X-100(v/v) containing protease/phosphatase inhibitor) was added to the precipitate, and sonication was used to lyse the sample before centrifugation at 16000×g for 15 minutes at 4 degrees. […] In addition, pulled down protein samples were analyzed by silver staining; bands which existed in anti-BCL9 samples, but not in the anti-normal IgG groups, were cut and used for further MS analysis to validate previous results. […]
Cells were cultured on coming Glass Coverslips (354085, BioCoat) contained within the wells of a 24-well plate for 24 hrs, and then fixed using 4% paraformaldehyde. […] The colocalization threshold is calculated by ImageJ2. Dotted staining area of BCL9 was calculated by the following step: confocal images were processed by High Frequency Signaling Removal to filter out the rapidly changing signal. […]

RKO cells [3] = assay: Live-cell calcium imaging of spontaneous calcium transients (GCaMP5); conditions: calcium wave spike library
Procedure: 2 mg/ml neomycin was added to the cell culture medium 48 hrs after transfection to generate cell lines with stable GCaMP5 expression and removed one week prior to the initiation of experiment. Calcium transients were captured by live-cell imaging using a confocal microscope. Time lapse imaging was setup so that an image was captured every 0.5 s for 30 minutes, with an exposure time of 0.5 s. Calcium measurements were normalized to background fluorescence and the relative change in calcium (F(t)) over time was calculated by the formula: […]
where F0 was defined as the average intensity of the 20% lowest grey values in a region of interest (ROI), F was defined as the normalized grey values of ROI in time point t. Global synchronicity was calculated by cross correlation method in FluoroSNNAP (seas.upenn.edu/˜molneuro/fluorosnnap.html).

[4] = system: BCL9/β-catenin protein complex; assay: Coimmunoprecipitation of BCL9/β-catenin complex
Procedure: as §1, with “degrees. 1 mg of the nuclear lysate was blocked with 5% BSA for 1 hr at 4 degrees, before overnight incubation with anti-BCL9 (ab37305 Abcam®, 6109 generated in New England Biolabs), NONO (ab70335, Abcam®), SFPQ (ab38148), ILF2 (H00003608-D01, abnova) or β-catenin (9562L, Cell Signaling®) antibodies. Normal rabbit IgG (sc-3888, Santa Cruz®) was used as a negative control. The following day, Protein G and A DynaBeads (10003D, 10002D, ThermoFisher®) were added to the nuclear lysate at a ratio of 1:1 and rotated for an additional 4 hrs.” for “degrees.”

RKO cells [5] = assay: Cell viability of wild-type and BCL9 knockout RKO cells after Poly I:C
BCL9 [6] = assay: Immunoblotting of protein levels; conditions: longer exposure, FIG. 3F and 16D
Procedure: Following lysis, cells were incubated on ice for 10 minutes and centrifuged for 10 minutes at 4 degrees at 16000×g.

[7] = system: BCL9/paraspeckle proteins (NONO, SFPQ, ILF2); assay: Coimmunoprecipitation of BCL9 with paraspeckle proteins; conditions: RKO cells, FIG. 16K
Procedure: This step was repeated 3 times to remove at much cytoplasmic protein as possible. Subsequently, nuclear lysis buffer (50 mM Tris-HCl pH=7.4, 150 mM NaCl, 2 mM EDTA, 1% Triton X-100(v/v) containing protease/phosphatase inhibitor) was added to the precipitate, and sonication was used to lyse the sample before centrifugation at 16000×g for 15 minutes at 4 degrees. […] The following day, Protein G and A DynaBeads (10003D, 10002D, ThermoFisher®) were added to the nuclear lysate at a ratio of 1:1 and rotated for an additional 4 hrs. The beads were washed 3 times with washing buffer (50 mM Tris-HCl pH=7.4, 200 mM NaCl, 2 mM EDTA, 1% Triton X-100(v/v)). The beads were then re-suspended with 2×LDS sample buffer and boiled for 10 mins. For Immunoblotting, the sample was electrophoresed using SDS-PAGE, transferred to nitrocellulose membrane and blocked using non-fat 5% milk.

Row | BCL9 binding to paraspeckle proteins [7] | Molecule | partial co-localization between BCL9/IF and NEAT1/FISH signals (BCL9 [1]; FIG. 16I) | accumulation of BCL9 around the nucleus (BCL9 [1]; after 6 hrs, FIG. 16C) | BCL9 accumulation around the nucleolus (BCL9 [1]; longer exposure, FIG. 3F) | transcription of the full-length RGS4 mRNA isoform ([2]; BCL9 knockout cells) | expression of RGS4, CACNA2D1 and ADRB1 ([2]; wild-type RKO cells, RNA-seq, Poly I:C 1 μg/ml) | location and interaction of BCL9 with paraspeckle proteins (DLD-1 cells) | length and amplitude of calcium transients (RKO cells [3]; BCL9 knockout cells) | length and amplitude of calcium transients (RKO cells [3]; wild-type cells) | amount of BCL9/β-catenin protein complex ([4]; Colo320 cells, FIG. 16J) | growth of cells (RKO cells [5]; BCL9 knockout RKO cells) | growth of cells (RKO cells [5]; wild-type RKO cells) | BCL9 and ILF2 protein levels (BCL9 [6]) | interaction between BCL9 and β-catenin ([4]; RKO cells, FIG. 16K)
1 | – | poly I:C | increased | accumulation of BCL9 around the nucleus was observed | induced further BCL9 accumulation around the nucleolus | not rescued | increased | unresponsive | not | enhanced | reduced | not | increased | increased | –
2 | did not affect | Wnt3A: Wnt ligand used to treat RKO cells (protein, UniProt P56704 19-352, looked up) Protein Wnt-3a: SYPIWWSLAVGPQYSSLGSQPILCASIPGLVPKQLRFCRNYVEIMPSVAEGIKIGIQECQHQFRGRRWNCTTVHDSLAIFGPVLDKATRESAFVHAIASAGVAFAVTRSCAEGTAAICGCSSRHQGSPGKGWKWGGCSEDIEFGGMVSREFADARENRPDARSAMNRHNNEAGRQAIASHMHLKCKCHGLSGSCEVKTCWWSQPDFRAIGDFLKDKYDSASEMVVEKHRESRGWVETLRPRYTYFKVPTERDLVYYEASPNFCEPNPETGSFGTRDRTCNVSSHGIDGCDLLCCGRGHNARAERRREKCRCVFHWCCYVSCQECTRVYDVHTCK | – | – | – | – | – | – | – | – | – | – | – | – | increased
